Patent US5756107A, “Formulations and methods for reducing skin irritation” (Cosmederm Technologies, priority 1994, dated 1998)
Entries after “also recorded” stand apart in the source; their conditions may differ. Where a name gives a salt, the structure may show the parent alone.

Key:
[1] = cited from earlier work
[2] = test system: subject's skin (skin irritation caused by lactic acid); test: Lactic acid skin irritation challenge, double-blind randomized vehicle-controlled clinical trial (cumulative sensory irritation); type: in vivo, human; conditions: for anti-irritant activity (in words): clinical trials, topical; for Percent Inhibition: representative subject panels, cation concentrations of 250 mM, vehicle 10% EtOH; for Percent Inhibition (average inhibition of cumulative irritation): cation salts at 250 mM, average over clinical tests of over 550 subjects, 7.5% lactic acid challenge
Procedure: The trials were conducted in a double blind, randomized, vehicle-controlled manner. Various formulations of the invention were tested in over 550 people.
Controls were performed by applying a corresponding formulation without any added cation to a contralateral portion of the subject's skin.
The following scaled scores were used for sensory assessment:
Cumulative irritation data are set forth in the following tables, and are depicted in FIGS. 9 and 10.

exposed tooth nerves = conditions: cited from earlier work
skin irritation = test: Inhibition of skin irritation by salts in Elizabeth Arden Visible Difference Refining Toner; type: in vivo; conditions: topical solution in Elizabeth Arden Visible Difference Refining Toner, various amounts
Procedure: Cation salts of the invention were formulated at various concentrations in various commercially available topical cosmetic products.
Topical solution forms of potassium nitrate, potassium chloride, potassium citrate, lithium sulfate, lithium nitrate and lithium acetate were prepared by combining various amounts of the named salts with Elizabeth Arden Visible Difference Refining Toner (an alcohol-containing solution).

sodium channels = conditions: cell membranes; cited from earlier work
exposed tooth pulp = exposed tooth pulp vs dentin; cited from earlier work
tooth sensitivity = conditions: dentifrice, two to six weeks of continuous use; cited from earlier work
brains of test animals = conditions: applied directly to the brains of test animals; cited from earlier work
[3] = in vivo, po; cited from earlier work

SMILES	anti-irritant activity (in words) [2]	Percent Inhibition [2] [%]	Percent Inhibition (average inhibition of cumulative irritation) [2] [%]	inhibition of skin irritation (in words) (skin irritation)	further results
O=S(=O)([O-])[O-].[Mg+2] [magnesium sulfate]					anesthesia or analgesia ([1]; intravenous): produces neither anesthesia nor even analgesia in humans
O=C(O)C(=O)O [Potassium oxalate, potassium oxalate]	particularly active as anti-irritants	30			
O=C(O)O [Lithium carbonate, lithium carbonate]	particularly active as anti-irritants	69			
[Ca+2] [calcium]					nerve electrical responses (exposed tooth nerves): may suppress nerve electrical responses
CC(=O)O [Lithium acetate]	particularly active as anti-irritants	67	70	effective to inhibit skin irritation	
O=C([O-])CC(O)(CC(=O)[O-])C(=O)[O-].[K+].[K+].[K+] [potassium citrate]				effective to inhibit skin irritation	
[Li+] [lithium (Li^+), lithium]	effective, when applied topically to the skin in appropriate concentrations and vehicles, to suppress the relatively severe stinging, burning, tingling, itching and/or erythema				block of sodium channels (sodium channels): block sodium channels on cell membranes; anti-irritant efficacy, effect of glycerol in the vehicle ([2]; preliminary studies, low concentration, vehicle includes glycerol): increased if the vehicle includes glycerol
O=[N+]([O-])[O-].[Li+] [Lithium nitrate]	particularly active as anti-irritants	16	20	effective to inhibit skin irritation	
[K+] [potassium (K^+), potassium]	effective, when applied topically to the skin in appropriate concentrations and vehicles, to suppress the relatively severe stinging, burning, tingling, itching and/or erythema				pain on application to tooth pulp or dentin (exposed tooth pulp): pain is induced when potassium ion is applied to exposed tooth pulp but not when applied to the dentin; nerve electrical responses (exposed tooth nerves): evokes a transient electrical response followed by inhibition of excitability
O=S(=O)([O-])[O-].[K+].[K+] [Potassium sulfate]		27	15		
O=S(=O)([O-])[O-].[Li+].[Li+] [Lithium sulfate]	overall efficacy of the subject formulations is evident; also recorded: particularly active as anti-irritants	39	35	effective to inhibit skin irritation	Percent Inhibition (cumulative irritation, dose-response) ([2]; 31 mM): 2%; Percent Inhibition (cumulative irritation, dose-response) ([2]; 62 mM): -7%; Percent Inhibition (cumulative irritation, dose-response) ([2]; 125 mM): 16%; Percent Inhibition (cumulative irritation, dose-response) ([2]; 250 mM): 27%; Percent Inhibition (cumulative irritation, dose-response) ([2]; 500 mM): 30%
[Cl-].[Cl-].[Sr+2] [strontium chloride, reference compound]					tooth sensitivity (tooth sensitivity): reduce tooth sensitivity
O=[N+]([O-])[O-].[K+] [Potassium nitrate]	particularly active as anti-irritants	29	30	effective to inhibit skin irritation	Percent Inhibition (cumulative irritation, dose-response) ([2]; 31 mM): -3%; Percent Inhibition (cumulative irritation, dose-response) ([2]; 125 mM): 18%; Percent Inhibition (cumulative irritation, dose-response) ([2]; 250 mM): 29%; Percent Inhibition (cumulative irritation, dose-response) ([2]; 500 mM): 60%; tooth sensitivity (tooth sensitivity): reduce tooth sensitivity
[Mg+2] [magnesium]					neural or synaptic activity (brains of test animals): depressed neural or synaptic activity, and even a sleep-like state; paralysis of skeletal muscles ([1]; magnesium ion, intravenously-administered magnesium sulfate): induces paralysis of skeletal muscles; paralysis or depressed neural activity [3]: does not result in paralysis or depressed neural activity in healthy individuals; nerve electrical responses (exposed tooth nerves): may suppress nerve electrical responses
O=C([O-])[C@H](O)[C@@H](O)[C@H](O)[C@H](O)CO.[K+] [Potassium gluconate]	particularly active as anti-irritants	25	25		
[Cl-].[K+] [Potassium chloride]	overall efficacy of the subject formulations is evident; also recorded: particularly active as anti-irritants	38	40	effective to inhibit skin irritation	
[Cl-].[Li+] [Lithium chloride]		6	0		
